According to patent US6784191B2, “Benzamidine derivatives” (Ajinomoto Co., Inc., priority 1999, dated 2004):

What was measured:
[1] = molecular target: T1, human thrombin (Homo sapiens, UniProt P00734); test: Determination of thrombin-inhibiting activity (S-2238 chromogenic substrate, initial rate); type: biochemical; details: negative logarithm of concentration inhibiting 50% of initial rate, tris hydrochloride buffer pH 8.4, room temperature; for IC50: read-out: Thrombin-inhibiting activity (pIC50) (converted)
T1 construct: human thrombin (a product of SIGMA Co.); purchased SIGMA Co
Description: Determination of Thrombin-Inhibiting Activity
130 μl of 100 mM tris hydrochloride buffer adjusted to pH 8.4 was added to 10 μl of an aqueous solution of a test compound. Then 10 μl of a solution of human thrombin (a product of SIGMA Co.) adjusted to 2 units/ml with tris hydrochloride buffer of pH 8.4 was added to the resultant mixture. After the incubation at room temperature for 10 minutes, 50 μl of a solution of D-phenylalanine-L-pipecolyl-L-arginine-P-nitroanilide dihydrochloride (S-2238; a product of Daiichi Kagaku Yakuhin Co.) adjusted to 0.4 mM with tris hydrochloride buffer of pH 8.4 was added thereto. The absorbance was determined and then the initial reaction rate was determined. A control was prepared in the same manner as that described above except that the solution of the compound to be tested was replaced with 10 μl of tris hydrochloride buffer adjusted to pH 8.4. The absorbance was determined with MICROPLATE READER Model 3550-UV (a product of […]) at a wave length of 405 nm at intervals of 15 seconds for 16 minutes.

[2] = system: blood plasma (prothrombin time); test: Determination of blood anticoagulating activity by prothrombin time (PT) method; type: biochemical, human; details: blood plasma from healthy people, citrate; Sysmex PT II rabbit brain thromboplastin, 37° C.
Description: Determination of Blood Anticoagulating Activity
The blood anticoagulating activity was determined by a prothrombin time (PT) determination method. The PT was determined as follows: The blood was taken from healthy people. 3.8% aqueous trisodium citrate solution was added to the blood in a volume ratio of 1:10. The blood plasma was separated by the centrifugation. 5 μl of DMSO solution containing a test compound was added to 45 μl of the blood plasma. After the incubation at room temperature for 2 minutes, a test tube containing the blood plasma solution was placed in Sysmex CA-3000 fully automatic blood coagulation determination device (a product of Toa Medical Electronics Co., Ltd.), and incubated at 37° C. for 3 minutes. 100 μl of Sysmex PT II (rabbit brain tissue thromboplastin, 13.2 mM calcium chloride; a product of Toa Medical Electronics Co., Ltd.) was fed into the test tube. PT was automatically determined with the device. A sample containing 5 μl of DMSO in place of the solution of the test compound was used as the control. The negative logarithm (pPT2) of the concentration of the test compound which elongated PT of the control to the twice as long was determined, and employed as the index of the blood anticoagulating activity.

[3] = molecular target: T2, activated human blood coagulation factor X (Homo sapiens, UniProt P00742); test: Determination of activity of inhibiting the activated blood-coagulation factor X (chromogenic substrate, initial rate); type: biochemical; details: negative logarithm of concentration inhibiting 50% of initial rate, tris hydrochloride buffer pH 8.4, room temperature; for IC50: read-out: Activity of inhibiting activated blood coagulation factor X (pIC50) (converted)
T2 construct: purchased Enzyme Research Co
T2 sequence (P00742 235-488 limits assumed): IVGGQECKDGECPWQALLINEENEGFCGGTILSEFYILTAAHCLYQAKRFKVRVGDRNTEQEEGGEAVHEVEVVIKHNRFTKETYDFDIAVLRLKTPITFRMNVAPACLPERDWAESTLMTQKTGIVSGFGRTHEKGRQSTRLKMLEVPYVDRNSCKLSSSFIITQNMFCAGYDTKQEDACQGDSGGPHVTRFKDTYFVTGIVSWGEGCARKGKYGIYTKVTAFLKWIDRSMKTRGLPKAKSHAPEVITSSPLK
T2 sequence (P00742 41-179 partner limits assumed): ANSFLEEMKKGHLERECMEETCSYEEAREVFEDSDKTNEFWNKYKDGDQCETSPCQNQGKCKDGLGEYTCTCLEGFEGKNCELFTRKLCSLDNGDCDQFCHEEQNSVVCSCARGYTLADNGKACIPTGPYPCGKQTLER
Description: Determination of Activity of Inhibiting the Activated Blood-coagulation Factor X
130 μl of 100 mM tris hydrochloride buffer adjusted to pH 8.4 was added to 10 μl of an aqueous solution of a compound to be tested. Then 10 μl of a 0.5 unit/ml solution of activated human blood coagulation factor X (a product of Enzyme Research Co.) in tris hydrochloride buffer of pH 8.4 was added to the resultant mixture. After the incubation at room temperature for 10 minutes, 50 μl of a solution of N-benzoyl-L-isoleucine-L-glutamine-glycine-L-arginine-P-nitroanilide hydrochloride (a product of Peptide Institute Inc.) adjusted to 0.8 mM with tris hydrochloride (pH 8.4) was added thereto. The absorbance was determined and then the initial reaction rate was determined. A control was prepared in the same manner as that described above except that the solution of the compound to be tested was replaced with 10 μl of tris hydrochloride buffer adjusted to pH 8.4. The absorbance was determined with MICROPLATE READER Model 3550-UV (a product of BIO RAD) at a wave length of 405 nm at intervals of 15 seconds for 16 minutes.

| SMILES | Thrombin-inhibiting activity (pIC50) [1] | IC50 [1] [µM] | pPT2 (negative logarithm of the concentration which elongated PT of the control to twice as long) [2] | IC50 [3] [nM] | Activity of inhibiting activated blood coagulation factor X (pIC50) [3] |
| --- | --- | --- | --- | --- | --- |
| N=C(N)c1ccc(CCP(=O)(O)O)c(OCCNC(=O)C2CCN(c3ccncc3)CC2)c1 [Compd. of Ex. 1, [2-(4-Amidino-2-[2-[(1-(1-pyridine-4-yl)piperidine-4-carbonyl)amino]ethoxy]phenyl)ethyl]phosphoric acid bistrifluoroacetate] | <3.5 | > 316 | 6.8 | 3.16 | – |
| N=C(N)c1ccc(CCP(=O)(O)O)c(OCCNC(=O)c2ccc(C(=O)N3CCCC3)cc2)c1 [Compd. of Ex. 3, [2-(4-Amidino-2-[2-[4-(1-pyrrolidinecarbamoyl)benzoylamino]ethoxy]phenyl)ethyl]phosphoric acid mono-trifluoroacetate] | – | 39.8 | – | 2.51 | – |
| CC(=N)N1CCC(Oc2ccc(C(=O)NCCOc3cc(C(=N)N)ccc3CCP(=O)(O)O)cc2)CC1 [Compd. of Ex. 2] | – | > 100 | – | 2.51 | – |
| N=C(N)c1ccc(CCP(=O)(O)O)c(OC[C@H](CCC(=O)O)NC(=O)C2CCN(c3ccncc3)CC2)c1.O=C(O)C(F)(F)F.O=C(O)C(F)(F)F [Compd. of Ex. 4, (4S)-5-(5-amidino-2-(2-phosphorylethyl)phenoxy)-4-((1-(1-pyridine-4-yl)piperidine-4-carbonyl)-amino)pentanoic acid bistrifluoroacetate] | <4.0 | – | – | – | 8.7 |
| N/C(=N/O)c1ccc(CCP(=O)(O)O)c(OCCNC(=O)c2ccc(C(=O)N3CCCC3)cc2)c1 [Compd. of Ex. 6, [2-(4-Hydroxylamidino-2-[2-[4-(1-pyrrolidinecarbamoyl)benzoylamino]ethoxy]phenyl)ethyl]phosphoric acid monotrifluoroacetate] | – | > 100 | – | 79.4 | – |
